Source: patent US6689887B2, “Inhibition of human telomerase by a G-quadruplex-interaction compound” (Board of Regents, The University of Texas System, priority 1998, dated 2004)
pIC50: −log10 of the molar value. Each block holds one molecule with its values, some of them ahead of it.

Assays:
[1] = system: G-quadruplex in template DNA PQ74; assay: DNA Synthesis Arrest Assay (Taq polymerase primer extension, PQ74 template); type: biochemical
Method: It has been shown that DNA sequences with quadruplex-forming potential present obstacles to DNA synthesis by DNA polymerases in a K^+ dependent manner. This K^+ dependent block to DNA polymerase is a selective and sensitive indicator of the formation of intramolecular quadruplexes (Weitzmann, et al., 1996).
The assay is a modification of that described by Weitzmann, et al. Briefly, primers (24 nM, sequence: 5′-TAATACGACTCACTATAG-3′) (SEQ ID No. 9) labeled with [γ-^32P]ATP were mixed with template DNA PQ74(12 nM, sequence: […] […]-3′) (SEQ ID No. 10) in a Tris-HCl buffer (10 mM Tris, pH 8.0) containing 5 mM K^+ and heated at 90° C. for 4 mm. After cooling at room temperature for 15 mm. potential G-quadruplex-interactive compounds were then added to various concentrations. The primer extension reactions were initiated by adding dNTP (final concentration 100 μM), MgCl2 (final concentration 3 mM) and Taq polymerase (2.5 U/reaction, Boehringer Mannheim). The reactions were incubated at 55° C. for 15 mm. then stopped by adding an equal volume of stop buffer (95% formamide, 10 mM EDTA; 10 mM NaGH, 0.1% xylene cyanol. 0.1% bromophenol blue). The products were separated on a 12% polyacrylamide sequencing gel. The gels were then dried and visualized on a phosphorimager (Molecular Dynamics model 445 S1).
Using the DOCK screening methods above, the carbocyanine group of compounds were identified as potential G-quadruplex interactive agents. […] Each compound was assayed at a concentration of 20 μM.

telomerase = assay: Standard telomerase primer extension assay without PCR amplification; type: biochemical, human; settings: at 50 μM, confirmatory tests
Method: The identified inhibitors may be used therapeutically to interfere with the function of telomerase and thus to treat cancers.
Briefly, the 18-mer telomeric primer d[TTAGGG]3 (SEQ ID No. 1) (1 μM) without or with N,N′-bis(2-dimethylaminoethyl)-3,4,9,10-perylenetetracarboxylic acid diimide was elongated with telomerase in the presence of 1.5 μM of [α-^32P]-dGTP (800 Ci mmol^−1, 10 mCi ml^−1) with 1 mM dATP and 1 mM dTTP. The extension products were isolated and visualized by autoradiography after denaturing gel electrophoresis.

[2] = system: G-quadruplex of HT4 template (four repeats of TTAGGG); assay: DNA synthesis arrest assay with BSU-1051, HT4 template; type: biochemical, human
Method: (§1) This assay is a modification of that described by Weitzmann and co-workers (Weitzmann et al., 1996). Briefly, primers (P18, 24 nM) labeled with [γ-^32P] were mixed with template DNA (12 nM)) in a Tris-HCl buffer (10 mM Tris, pH 8.0) containing K^+ (5 mM for the PQ74 template and 50 mM for the HT4 template) and denatured by heating at 90° C. for 5 min. After cooling down to room temperature, BSU-1051 was added at various concentrations and incubated at room temperature for 15 min. The primer extension reactions were initiated by adding dNTP (final concentration 100 μM), MgCl2 (final concentration […]), and Taq DNA polymerase (2.5 U/reaction, Boehringer Mannheim). For sequencing reactions, the TaqTrack Sequencing System (Promega, Wis., Madison) was used. The sequencing reaction buffer was changed to 50 mM Tris-HCl, pH 9.0, 10 mM MgCl, and 50 mM K^+. The reactions were stopped by adding an equal volume of stop buffer (95% formamide, 10 mM EDTA, 10 mM NaOH, 0.1% xylene cyanol, 0.1% bromphenol blue). For the temperature-dependent studies, the ligand concentration was fixed and the primer extension reactions were carried out at the temperatures indicated in methods. The products were separated on a 12% polyacrylamide sequencing gel. The gels were then dried and visualized on a PhosphorImager (Molecular Dynamics model 445 S1). […]

[3] = system: G-quadruplex of PQ74 template (four repeats of TTGGGG); assay: DNA synthesis arrest assay with BSU-1051, PQ74 template; type: biochemical
Method: This assay is a modification of that described by Weitzmann and co-workers (Weitzmann et al., 1996). Briefly, primers (P18, 24 nM) labeled with [γ-^32P] were mixed with template DNA (12 nM)) in a Tris-HCl buffer (10 mM Tris, pH 8.0) containing K^+ (5 mM for the PQ74 template and 50 mM for the HT4 template) and denatured by heating at 90° C. for 5 min. After cooling down to room temperature, BSU-1051 was added at various concentrations and incubated at room temperature for 15 min. The primer extension reactions were initiated by adding dNTP (final concentration 100 μM), MgCl2 (final concentration […]), and Taq DNA polymerase (2.5 U/reaction, Boehringer Mannheim). For sequencing reactions, the TaqTrack Sequencing System (Promega, Wis., Madison) was used. The sequencing reaction buffer was changed to 50 mM Tris-HCl, pH 9.0, 10 mM MgCl, and 50 mM K^+. The reactions were stopped by adding an equal volume of stop buffer (95% formamide, 10 mM EDTA, 10 mM NaOH, 0.1% xylene cyanol, 0.1% bromphenol blue). For the temperature-dependent studies, the ligand concentration was fixed and the primer extension reactions were carried out at the temperatures indicated in methods. The products were separated on a 12% polyacrylamide sequencing gel. The gels were then dried and visualized on a PhosphorImager (Molecular Dynamics model 445 S1).
Although it has been shown that G-quadruplex structures block primer extension by DNA polymerase in a K^+ dependent manner (Weitzmann et at., 1996), the inventors are unaware of any reports showing enhanced blockage by G-quadruplex—interactive agents. To determine if BSU-1051 binding to G-quadruplex enhances the block to DNA synthesis, primer extension reactions were carried out in the absence and presence of BSU-1051. Taq DNA polymerase primer extension on DNA templates containing four repeats of either TTGGGG (SEQ ID No. 7) (PQ74) or TTAGGG (SEQ ID No. 1) (HT4) in the presence of different concentrations of BSU-1051 at 55° C. were performed. […]

[4] = system: 7-deaza-dG substituted HT4 and PQ74 templates; assay: Primer extension on 7-deaza-dG substituted templates; type: biochemical; settings: BSU-1051 up to 50 μM
Method: as §1

MCF-7 = assay: MTT cytotoxicity assay, MCF-7; type: cell-based, human; settings: MCF-7, 72 hours
Method: (§2) The ability of these compounds to inhibit the proliferative capacity of human cancer cells was determined by a standard MTT assay. Briefly, cells were incubated for 72 hours in the presence of various concentrations of compound, and the cell viability was determined by monitoring the formation of a colored formazan salt of the tetrazolium salt 3-(4,5-dimethylthiazol-2-yl)-2,5-diphenyl tetrazolium bromide (MTT) by viable cells.

d(TTAGGGT)4 G-quadruplex = assay: UV/VIS spectroscopy titration with G-quadruplex; type: binding, human; settings: 20 μM compound, 0-80 μM quadruplex, overnight, pH 7.0
Method: (B) Compounds may be selected for their ability to interact with human DNA G-quadruplex as indicated by UV/VIS spectroscopy. To a 10 μM solution of N,N′-bis(2-dimethylaminoethyl)-3,4,9,10-perylenetetracarboxylic acid diimide in 20 mM phosphate buffer containing 100 mM KCl, pH 7.0 in a quartz cuvette was added 10 μL aliquots of a 3 mM solution of d(TTAGGGT)4 (SEQ ID No. 6). After each addition the UV/VIS spectrum was recorded.
(§3) The N,N′-bis(3-morpholinopropyl)3,4,9,10-perylenetetracarboxilic acid diimide (KeTEL01) was synthesized from 3,4,9,10-perylenetetracarboxylic acid dianhydride and 3-morpholinopropylamine using a procedure analogous to that described above in example 5.3 for the synthesis of N,N′-bis(2-piperdinoethyl)-3,4,9,10-perylenetetracarboxylic acid diimide. A solution of KeTEL01 was prepared by dissolving 1 mg of KeTEL01 in 300 μL of 1 N HCl. To this solution was added 11 mL of a pH 7.0 buffer containing 20 mM sodium phosphate, 100 mM KCl, 1 mM EDTA, and 0.02% hydroxypropyl-β-cyclodextrin. Aliquots of this stock solution of KeTEL01 were transferred to 8 different quartz cuvettes and diluted into pH 7.0 mM sodium phosphate, 100 mM KCl, 1 mM EDTA buffer to afford solutions in which the concentration of KeTEL01 was 20 μM. To each of the cuvettes was added a solution of [d(TTAGGGT)]4 (SEQ ID No. 6) so that the final concentration of [d(TTAGGGT)]4 (SEQ ID No. 6) in each of the cuvettes was 0, 4, 8, 12, 16, 20, 50, and 80 μM. These solutions were allowed to stand overnight in the dark, and the UV/VIS spectrum of each was determined. […] In a parallel study, changes in the UV/VIS spectrum of a 20 μM solution of KeTEL01 in a pH 7.0 20 mM phosphate buffer containing 100 mM KCl and 1 mM EDTA were determined upon the addition of […] aliquots of a 3 mM (base pair) solution of calf thymus DNA.

human cancer cells = assay: MTT assay, human cancer cell lines; type: cell-based; settings: 72 hours; highest concentration tested 100 μM
Method: as §2

[5] = system: calf thymus DNA (double-stranded DNA); assay: UV/VIS spectroscopy with double-stranded DNA; type: binding; settings: 20 μM compound, pH 7.0, 100 mM KCl
Method: as §3

[6] = system: [d(TTAGGGT)]4 G-quadruplex; assay: Kinetics of interaction with G-quadruplex DNA (absorption at 488 nm); type: binding, human; settings: 5 μM compound, 50 μM quadruplex, pH 7.0
Method: A solution of 5 μM KeTEL01 in 20 mM phosphate buffer, 100 mM KCl, pH 7.0 was placed in a quartz cuvette and the UV/VIS spectrum determined. An aliquot of a solution of [d(TTAGGGT)]4 (SEQ ID No. 6) was added to the cuvette to afford a final concentration of 50 μM. The cuvette was quickly inverted several times and placed in the spectrophotometer. The absorption of the sample at 488 nm was continuously monitored for 3 hours, during which time, the absorption decreased in a multiexponential function. The time required for the absorption at 488 nm to reach one-half of its equilibrium value was 60 mm.

Raji = assay: MTT cytotoxicity assay, Raji; type: cell-based, human; settings: 72 hours
Method: as §2

PC-3 = assay: MTT cytotoxicity assay, PC-3; type: cell-based, human; settings: PC-3, 72 hours
Method: as §2

BT-20 = assay: MTT cytotoxicity assay, BT-20; type: cell-based, human; settings: BT-20, 72 hours
Method: as §2

d(TTAGGG)4 G-quadruplex = assay: NMR imino proton titration of G-quadruplex; type: binding, human; settings: overall stoichiometry 1:1, 500 MHz
Method: (C) Compounds may be selected for their ability to interact with human DNA G-quadruplex as indicated by NMR spectroscopy. The imino proton spectrum (9-12 ppm) of a solution of d(TTAGGG)4 (SEQ ID No. 1) in D2O/H2O (10:90) was determined at 500 MHz. Aliquot of N,N′-bis(2-piperdinoethyl)-3,4,9,10-perylenetetracarboxylic acid diimide were added and the imino proton spectrum recorded.

Stop (F + P)rel: relative amount of both full-length and paused products ([1]; compound 20 μM): 88%
Stop (P/T)rel: relative ratio of paused products to total products ([1]; compound 20 μM): 139%
inhibition of telomerase (telomerase): 10-35%
SMILES: CCN1/C(=C/C=C/c2sc3ccccc3[n+]2CC)Sc2ccccc21.[I-] [UT-SK-002, diethylthiocarbocyanine iodide]

temperature up to which polymerase pausing is observed ([2]; in the presence of BSU-1051, without ligand pausing fades out at 55° C.): 65 °C
temperature up to which polymerase pausing is observed ([3]; 20 μM BSU-1051, without ligand pausing almost lost at around 65° C.): 74 °C
primer extension by Taq DNA polymerase ([3]; 100 μM BSU-1051, 55° C., PQ74 or HT4 template): completely inhibited
polymerase pausing on 7-deaza-dG substituted templates [4]: no significant pausing
SMILES: C[N+]1(CCC(=O)Nc2ccc3c(c2)C(=O)c2ccc(NC(=O)CC[N+]4(C)CCCCC4CO)cc2C3=O)CCCCC1CO.[I-].[I-] (stereo not drawn) [BSU-1051]
ΔTm of G-quadruplex ([2]; 20 μM BSU-1051): about 20 °C
ΔTm of G-quadruplex ([3]; 20 μM BSU-1051): about 20 °C

SMILES: O=C1c2ccc3c4ccc5c6c(ccc(c7ccc(c2c37)C(=O)N1CCCN1CCOCC1)c64)C(=O)N(CCCN1CCOCC1)C5=O [KeTEL01, N,N′-bis(3-morpholinopropyl)3,4,9,10-perylenetetracarboxilic acid diimide]
pIC50 (MCF-7): < 4.00
hyperchromicity at 510 nm (d(TTAGGGT)4 G-quadruplex): ~40%
hyperchromicity at 548 nm (d(TTAGGGT)4 G-quadruplex): ~100%
hypochromicity at 488 nm (d(TTAGGGT)4 G-quadruplex): ~40%
cytotoxic effect, MTT (human cancer cells): no cytotoxic effect
changes in the UV/VIS spectrum upon addition of calf thymus DNA [5]: No changes
time required for absorption at 488 nm to reach one-half of its equilibrium value [6]: 60 min
pIC50 (Raji): < 4.00
pIC50 (PC-3): < 4.00
pIC50 (BT-20): < 4.00

SMILES: O=C1c2ccc3c4ccc5c6c(ccc(c7ccc(c2c37)C(=O)N1CCN1CCCCC1)c64)C(=O)N(CCN1CCCCC1)C5=O [N,N′-bis(2-piperdinoethyl)-3,4,9,10-perylenetetracarboxylic acid diimide]
DNA synthesis arrest (FIG. 8) ([1]; 0.5-50 μM, PQ sequence): DNA synthesis arrest
upfield shift of G6 imino resonance (d(TTAGGG)4 G-quadruplex): > 0.2 ppm
